Values of other authors in US20220095612A1, “MICRONUTRIENT COMPOSITIONS AND SYSTEMS AND METHODS OF USING SAME” (Nanochem Solutions, Inc., priority 2020, published 2022).

pH at which the alpha carboxyl deprotonates (alpha carboxyl group): about 2.09 | pH at which the carboxyl side group deprotonates (carboxyl side group): about 3.86
SMILES: N[C@@H](CC(=O)O)C(=O)O [L-aspartic acid]
